Results on one compound are retold here after patent US9975906B2, “Tricyclic heterocycle derivatives having HIV replication inhibitory effect” (Shionogi & Co., Ltd., priority 2014, dated 2018).

What all share (assay type): in vitro ADME
Series [1] addresses T1, CYP3A4 (Homo sapiens, UniProt P08684).
T1 construct: enzyme, pooled human hepatic microsome 0.2 mg protein/mL; from tissue
Description: CYP3A4 (MDZ) MBI Test. To be noted: pooled human liver microsomes, 10 μmol/L MDZ, pre-reaction 0 or 30 minutes. Here is the method:
CYP3A4 (MDZ) MBI test is a test of investigating mechanism based inhibition (MBI) ability on CYP3A4 inhibition of a compound by enhancement of a metabolism reaction. CYP3A4 inhibition is evaluated using 1-hydroxylation reaction of midazolam (MDZ) by pooled human liver microsomes as an index.
The reaction conditions are as follows: substrate, 10 μmol/L MDZ; pre-reaction time, 0 or 30 minutes; substrate reaction time, 2 minutes; reaction temperature, 37° C.; protein content of pooled human liver microsomes, at pre-reaction time 0.5 mg/mL, at reaction time 0.05 mg/mL (at 10-fold dilution); concentrations of the compound of the present invention, 1, 5, 10, 20 μmol/L (four points).
Pooled human liver microsomes in K-Pi buffer (pH 7.4) and a solution of the compound of the present invention as a pre-reaction solution were added to a 96-well plate at the composition of the pre-reaction. […] After centrifuged at 3000 rpm for 15 minutes, 1-hydroxymidazolam in the supernatant was quantified by LC/MS/MS.
The sample adding DMSO to a reaction system instead of a solution of the compound of the present invention is adopted as a control (100%) because DMSO is used as a solvent to dissolve the compound of the present invention. […] Shifted IC value is calculated as “IC of preincubation at 0 min/IC of preincubation at 30 min”. […]
In general terms: Liver microsomes are a subcellular fraction often used to study metabolism.

The next series concerns the target T2, CYP2D6 (Homo sapiens, UniProt P10635).
T2 construct: enzyme, pooled human hepatic microsome 0.2 mg protein/mL; from tissue
Description: CYP Inhibition Assay (dextromethorphan O-demethylation). To be noted: pooled human hepatic microsome, 5 μmol/L dextromethorphan, 15 minutes, 37° C. On the procedure: (§1) Using commercially available pooled human hepatic microsome, and employing, as markers, 7-ethoxyresorufin O-deethylation (CYP1A2), tolbutamide methyl-hydroxylation (CYP2C9), mephenytoin 4'-hydroxylation (CYP2C19), dextromethorphan O-demethylation (CYP2D6), and terfenadine hydroxylation (CYP3A4) as typical substrate metabolism reactions of human main five CYP enzyme forms (CYP1A2, 2C9, 2C19, 2D6, 3A4) an inhibitory degree of each metabolite production amount by a test compound was assessed. […] After the centrifugation at 3000 rpm for 15 minutes, resorufin (CYP1A2 metabolite) in the supernatant was quantified by a fluorescent multilabel counter and tolbutamide hydroxide (CYP2C9 metabolite), mephenytoin 4' hydroxide (CYP2C19 metabolite), dextrorphan (CYP2D6 metabolite), and terfenadine alcohol (CYP3A4 metabolite) were quantified by LC/MS/MS. A reaction system containing only DMSO which is a solvent for dissolving a drug was adopted as a control (100%), and the remaining activity (%) was calculated, then IC50 was calculated by reverse presumption with a logistic model using a concentration and an inhibition rate.

Series [2] deals with T1, CYP3A4. The series can be described thus: CYP Inhibition Assay (terfenadine hydroxylation). To be noted: pooled human hepatic microsome, 1 μmol/L terfenedine, 15 minutes, 37° C. On the procedure:
as §1

Series [3] is described as follows: Metabolism Stability Test. To be noted: compound concentration 0.5 μmol/L, human liver microsomes, NADPH, 37° C., 30 minutes. On the procedure: Commercially available pooled human hepatic microsomes and a test compound were reacted for a constant time, then a remaining rate was calculated by comparing a reacted sample and an unreacted sample, thereby a degree of metabolism of the test compound in liver was assessed. A reaction was performed (oxidative reaction) at 37° C. for 0 minute or 30 minutes in the presence of 1 mmol/L NADPH in 0.2 mL of a buffer (50 mmol/L Tris-HCl, pH 7.4, 150 mmol/L potassium chloride, 10 mmol/L magnesium chloride) containing 0.5 mg protein/mL of human liver microsomes. After the reaction, 50 μL of the reaction solution was added to 100 μL of a methanol/acetonitrile=1/1 (v/v), mixed and centrifuged at 3000 rpm for 15 minutes. The test compound in the supernatant was quantified by LC/MS/MS, and a remaining amount of the test compound after the reaction wad calculated, letting a compound amount at 0 minute reaction time to be 100%. Hydrolysis reaction was performed in the absence of NADPH and glucuronidation reaction was in the presence of 5 mM UDP-glucuronic acid in place of NADPH, followed by similar operations. (Result) The residual rate of the compound concentration 0.5 μmol/L in the oxidation reaction was shown below.

A further series addresses T3, CYP2C9 (Homo sapiens, UniProt P11712).
T3 construct: enzyme, pooled human hepatic microsome 0.2 mg protein/mL; from tissue
Description: CYP Inhibition Assay (tolbutamide methyl-hydroxylation). To be noted: pooled human hepatic microsome, 100 μmol/L tolbutamide, 15 minutes, 37° C. On the procedure: as §1

The next series addresses T4, CYP2C19 (Homo sapiens, UniProt P33261).
T4 construct: enzyme, pooled human hepatic microsome 0.2 mg protein/mL; from tissue
The series can be described thus: CYP Inhibition Assay (mephenytoin 4'-hydroxylation). To be noted: pooled human hepatic microsome, 50 μmol/L S-mephenytoin, 15 minutes, 37° C. Here is the method:
as §1

T1 sequence (P08684 whole entry): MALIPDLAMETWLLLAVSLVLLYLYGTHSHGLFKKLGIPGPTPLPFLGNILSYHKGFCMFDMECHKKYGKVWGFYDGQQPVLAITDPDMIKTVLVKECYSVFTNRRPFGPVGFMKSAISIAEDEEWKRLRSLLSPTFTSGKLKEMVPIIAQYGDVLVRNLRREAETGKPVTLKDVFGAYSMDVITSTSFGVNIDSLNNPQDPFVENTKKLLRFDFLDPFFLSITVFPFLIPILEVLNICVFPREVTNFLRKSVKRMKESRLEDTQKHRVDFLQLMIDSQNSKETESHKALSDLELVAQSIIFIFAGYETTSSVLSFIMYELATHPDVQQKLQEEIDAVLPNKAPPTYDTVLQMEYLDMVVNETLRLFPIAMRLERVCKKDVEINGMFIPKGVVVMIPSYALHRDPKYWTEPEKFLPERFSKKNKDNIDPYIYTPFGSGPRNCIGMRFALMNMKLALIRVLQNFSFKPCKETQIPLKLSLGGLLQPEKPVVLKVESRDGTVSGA
T3 sequence (P11712 whole entry): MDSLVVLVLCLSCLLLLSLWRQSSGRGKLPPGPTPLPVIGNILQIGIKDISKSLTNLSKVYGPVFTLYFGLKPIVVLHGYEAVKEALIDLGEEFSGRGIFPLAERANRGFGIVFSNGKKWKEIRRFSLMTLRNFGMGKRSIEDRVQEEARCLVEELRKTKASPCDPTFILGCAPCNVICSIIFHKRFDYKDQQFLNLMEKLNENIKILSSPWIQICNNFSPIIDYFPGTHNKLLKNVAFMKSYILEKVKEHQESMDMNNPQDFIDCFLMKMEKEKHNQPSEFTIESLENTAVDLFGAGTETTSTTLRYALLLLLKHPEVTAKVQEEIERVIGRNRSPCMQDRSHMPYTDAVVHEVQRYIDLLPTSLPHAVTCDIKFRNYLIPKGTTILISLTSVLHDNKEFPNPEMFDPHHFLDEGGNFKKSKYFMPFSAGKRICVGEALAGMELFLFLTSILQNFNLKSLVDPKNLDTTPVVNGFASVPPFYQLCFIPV
T2 sequence (P10635 whole entry): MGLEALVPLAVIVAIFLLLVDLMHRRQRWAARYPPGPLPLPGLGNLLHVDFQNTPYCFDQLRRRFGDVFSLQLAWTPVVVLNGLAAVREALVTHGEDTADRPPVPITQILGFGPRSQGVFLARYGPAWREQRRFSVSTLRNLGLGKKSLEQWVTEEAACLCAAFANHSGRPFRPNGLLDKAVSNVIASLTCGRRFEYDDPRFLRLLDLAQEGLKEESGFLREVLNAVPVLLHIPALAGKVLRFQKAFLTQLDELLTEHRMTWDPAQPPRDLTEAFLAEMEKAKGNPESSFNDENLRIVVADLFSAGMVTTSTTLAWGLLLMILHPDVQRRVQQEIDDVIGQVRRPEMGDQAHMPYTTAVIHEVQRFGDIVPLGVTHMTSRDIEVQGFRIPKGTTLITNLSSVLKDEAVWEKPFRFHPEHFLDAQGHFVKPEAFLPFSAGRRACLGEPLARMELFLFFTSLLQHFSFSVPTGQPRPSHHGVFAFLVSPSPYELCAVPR
T4 sequence (P33261 whole entry): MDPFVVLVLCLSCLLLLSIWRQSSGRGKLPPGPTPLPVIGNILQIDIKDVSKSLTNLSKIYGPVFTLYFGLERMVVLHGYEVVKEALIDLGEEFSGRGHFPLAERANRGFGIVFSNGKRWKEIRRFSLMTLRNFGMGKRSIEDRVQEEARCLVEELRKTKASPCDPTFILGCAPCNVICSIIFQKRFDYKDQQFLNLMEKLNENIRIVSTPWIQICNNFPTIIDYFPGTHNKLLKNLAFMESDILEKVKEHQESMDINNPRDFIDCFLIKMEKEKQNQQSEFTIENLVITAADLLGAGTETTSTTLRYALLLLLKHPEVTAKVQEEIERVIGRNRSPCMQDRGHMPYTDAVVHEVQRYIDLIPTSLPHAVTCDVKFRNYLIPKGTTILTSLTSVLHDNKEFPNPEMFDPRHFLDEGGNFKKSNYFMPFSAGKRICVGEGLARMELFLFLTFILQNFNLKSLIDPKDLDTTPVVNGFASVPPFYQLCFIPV

As for `Cc1ccc(-c2c([C@H](OC(C)(C)C)C(=O)O)c(C)c3c4c2cc(-c2ccnc(-c5ccc6c(cnn6C)c5)c2)n4CCN3CCN(C)C)cc1` [Compound I-034], the “CYP3A4 (MDZ) MBI (shifted IC)” value at CYP3A4 [1] was “(−) (When a shifted IC is 1.0 or less, this is defined as negative)”. Further, the IC50 against CYP2D6, against CYP3A4 [2], against CYP2C9 and against CYP2C19 was > 20 µM each time. For the same compound, in series [3], the “residual rate in the oxidation reaction” value is given as > 99.9%.

One may read the IC50 as the concentration at which inhibition is half-maximal.
